Target: T1, KRAS G12C 1-169, his-tagged protein, GDP-loaded (Homo sapiens, UniProt P01116, G12C)
T1 construct: KRAS G12C 1-169, his-tagged protein, GDP-loaded
Assay: Biochemical assay: covalent binding to KRAS G12C, measured by mass spectrometry
Description: Test compounds were prepared as 10 mM stock solutions in DMSO (Fisher cat#BP-231-100). KRAS G12C 1-169, his-tagged protein, GDP-loaded was diluted to 2 μm in buffer (20 mM Hepes, 150 mM NaCl, 1 mM MgCl2). Compounds were tested for activity as follows:
Compounds were diluted to 50× final test concentration in DMSO in 96-well storage plates. Compound stock solutions were vortexed before use and observed carefully for any sign of precipitation. Dilutions were as follow: • For 100 μM final compound concentration, compounds were diluted to 5000 μM (5 μl 10 mM compound stock+5 μl DMSO and mixed well by pipetting. • For 30 μM final compound concentration, compounds were diluted to 1500 μM (3 μl 10 mM compound stock+17 μl DMSO) and mixed well by pipetting. • For […] final compound concentration, compounds were diluted to 500 μM (2 μl 10 mM compound stock+38 μl DMSO) and mixed well by pipetting. 49 μl of the stock protein solution was added to each well of a 96-well PCR plate (Fisher cat#1423027). 1 μl of the diluted 50× compounds were added to appropriate wells in the PCR plate using 12-channel pipettor. Reactions were mixed carefully and thoroughly by pipetting up/down with a 200 μl multi-channel pipettor. The plate was sealed well with aluminum plate seal, and stored in a drawer at room temperature for 2 hrs or 24 hrs. 5 μl of 2% formic acid (Fisher cat#A117) in DI H2O was then added to each well followed by mixing with a pipette. The plate was then resealed with aluminum seal and stored on dry ice until analyzed as described below.
The above described assays were analyzed by mass spectrometry according to the following procedure:
The MS instrument is set to positive polarity, 2 GHz resolution, and low mass (1700) mode and allowed to equilibrate for 30 minutes. The instrument is then calibrated, switched to acquisition mode and the appropriate method loaded.
After another 30 minute equilibration time, a blank batch (i.e., buffer) is run to ensure equipment is operating properly. The samples are thawed at 37° C. for 10 minutes, briefly centrifuged, and transfer to the bench top. Wells A1 and H12 are spiked with 1 uL 500 uM internal standard peptide, and the plates centrifuged at 2000×g for 5 minutes. The method is then run and masses of each individual well recorded.
The masses (for which integration data is desired) for each well are pasted into the platemap and exported from the analysis. Masses for the internal standards are exported as well. The data at 50 ppm is extracted for the +19 charge state, and identity of well A1 is assigned using the internal standard spike and integrated. Peak data is exported as a TOF list and the above steps are repeated individually, for the +20, 21, 22, 23, 24, and charge states.

[1] = Binding activity determined at 24 hrs, Table 8a
[2] = Binding activity determined at 2 hrs, Table 8b
[3] = Binding activity determined at 24 hrs, Table 7a

T1 sequence (P01116 1-169 isoform P01116-2 G12C): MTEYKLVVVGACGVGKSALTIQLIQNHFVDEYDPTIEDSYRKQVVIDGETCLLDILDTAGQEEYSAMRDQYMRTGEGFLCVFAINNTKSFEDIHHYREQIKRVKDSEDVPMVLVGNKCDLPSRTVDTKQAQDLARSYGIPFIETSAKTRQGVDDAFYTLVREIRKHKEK

Row | SMILES | Binding % [1] | also measured
1 | C=CC(=O)N1CCN(C(=O)c2cn(-c3cc(Cl)ccc3Cl)c(=O)cc2O)CC1 [VI-28, 5-(4-acryloylpiperazine-1-carbonyl)-1-(2,5-dichlorophenyl)-4-hydroxypyridin-2(1H)-one] | ++ (++ indicates binding activity greater than 10% and up to 20%) | –
2 | C=CC(=O)N1CCN(C(=O)c2cc(Cl)c(-c3cccc(Cl)c3)cc2O)CC1 [VI-43, 1-(4-(2,3′-dichloro-5-hydroxybiphenyl-carbonyl)piperazin-1-yl)prop-2-en-1-one] | – | Binding % [2]: + (+ indicates binding activity from 5% to 20%)
3 | C=CC(=O)N1CCN(C(=O)c2csc(-c3ccccc3Cl)n2)CC1 [VI-18, 1-(4-(2-(2-chlorophenyl)thiazole-4-carbonyl)piperazin-1-yl)prop-2-en-1-one] | + (+ indicates binding activity from 5% to 10%) | –
4 | C=CC(=O)N1CCN(C(=O)c2nc(-c3ccccc3Cl)cs2)CC1 [VI-19, 1-(4-(4-(2-chlorophenyl)thiazole-2-carbonyl)piperazin-1-yl)prop-2-en-1-one] | + (+ indicates binding activity from 5% to 10%) | –
5 | C=CC(=O)N1CCN(C(=O)c2ccc(Cl)c(Cl)c2)CC1 [VI-36, 1-(4-(3,4-dichlorobenzoyl)piperazin-1-yl)prop-2-en-1-one] | + (+ indicates binding activity from 5% to 10%) | –
6 | C=CC(=O)N1CCN(C(=O)c2cc(-c3ccc(Cl)cc3)c(Cl)cc2O)CC1C#N (stereo not drawn) [VI-37, 1-Acryloyl-4-(4′,6-dichloro-4-hydroxy-[1,1′-biphenyl]-3-carbonyl)piperazine-2-carbonitrile] | – | Binding % [2]: ++ (++ indicates binding activity greater than 20%)
7 | C=CC(=O)N1CCN(C(=O)c2nc(-c3ccccc3Cl)sc2Cl)CC1 [VI-20, 1-(4-(5-chloro-2-(2-chlorophenyl)thiazole-4-carbonyl)piperazin-1-yl)prop-2-en-1-one] | + (+ indicates binding activity from 5% to 10%) | –
8 | C=CC(=O)NC1CN(C(=O)c2cc(-c3ccccc3Cl)c(Cl)cc2O)C1 [VI-13, N-(1-(2′,6-dichloro-4-hydroxybiphenyl-carbonyl)azetidin-3-yl)acrylamide] | + (+ indicates binding activity from 5% to 10%) | –
9 | C=CC(=O)N1CCN(C(=O)c2cc(Cl)c(Cl)cc2O)CC1 [VI-8, 1-(4-(4,5-dichloro-2-hydroxybenzoyl)piperazin-1-yl)prop-2-en-1-one] | + (+ indicates binding activity from 5% to 10%) | –
10 | C=CC(=O)N1CCN(C(=O)c2cc(-c3cc(Cl)ccc3Cl)c(Cl)cc2OC)CC1CO (stereo not drawn) [VI-6, 1-(2-(hydroxymethyl)-4-(2′,5′,6-trichloro-4-methoxybiphenyl-carbonyl)piperazin-1-yl)prop-2-en-1-one] | ++ (++ indicates binding activity greater than 10% and up to 20%) | –
11 | C=CC(=O)N1CCN(C(=O)c2cc(O)c(Cl)c(-c3ccccc3Cl)c2)CC1 [VI-27] | +++ (+++ indicates binding activity greater than 20% and up to 30%) | –
12 | C=CS(=O)(=O)N[C@H]1CCCN(C(=O)c2ccc(Cl)c(Cl)c2)C1 [VI-35, (S)-N-(1-(3,4-dichlorobenzoyl)piperidin-3-yl)ethenesulfonamide] | ++ (++ indicates binding activity greater than 10% and up to 20%) | –
13 | C=CC(=O)N1CCN(C(=O)c2cc(-c3cc(Cl)ccc3Cl)c[nH]2)CC1 [VI-31, 1-(4-(4-(2,5-dichlorophenyl)-1H-pyrrole-2-carbonyl)piperazin-1-yl)prop-2-en-1-one] | + (+ indicates binding activity from 5% to 10%) | –
14 | C=CC(=O)N1CCN(C(=O)c2cc(-c3ccccc3Cl)c[nH]2)CC1 [VI-21, 1-(4-(4-(2-chlorophenyl)-1H-pyrrole-2-carbonyl)piperazin-1-yl)prop-2-en-1-one] | ++ (++ indicates binding activity greater than 10% and up to 20%) | –
15 | C=CC(=O)N1CCN(C(=O)c2cc(-c3ccccc3Cl)c(Cl)cc2OC)CC1 [VI-1, 1-(4-(2′,6-dichloro-4-methoxybiphenyl-carbonyl)piperazin-1-yl)prop-2-en-1-one] | + (+ indicates binding activity from 5% to 10%) | –
16 | COc1cc(Cl)c(-c2ccccc2Cl)cc1C(=O)N1CCN(C(=O)/C=C/CN(C)C)CC1 [VI-10, (E)-1-(4-(2′,6-dichloro-4-methoxybiphenyl-carbonyl)piperazin-1-yl)-4-(dimethylamino)but-2-en-1-one] | + (+ indicates binding activity from 5% to 10%) | –
17 | C=CC(=O)N1CCN(C(=O)c2cc(-c3ccccc3)c(Cl)cc2O)CC1 [VI-29, 1-(4-(6-chloro-4-hydroxybiphenyl-carbonyl)piperazin-1-yl)prop-2-en-1-one] | +++ (+++ indicates binding activity greater than 20% and up to 30%) | –
18 | C=CC(=O)N1CC(N2CCN(C(=O)NCc3cc(Br)c(Cl)cc3O)CC2)C1 [Compound V-66, 4-(1-acryloylazetidin-3-yl)-N-(5-bromo-4-chloro-2-hydroxybenzyl) piperazine-1-carboxamide] | – | Binding % (Binding activity determined at 2 hrs, Table 7b): + (+ indicates binding activity from 5% to 20%)
19 | C=CC(=O)N1CCN(C(=O)c2cc(-c3cc(Cl)ccc3Cl)c(Cl)cc2O)CC1 [VI-17, 1-(4-(2′,5′,6-trichloro-4-hydroxybiphenyl-carbonyl)piperazin-1-yl)prop-2-en-1-one] | ++++ (++++ indicates binding activity greater than 30%) | –
20 | C=CC(=O)N1CC(N2CCN(CCNc3cc(Cl)c(Cl)cc3O)CC2)C1 [Compound V-15, 1-(3-(4-(2-(4,5-dichloro-2-hydroxyphenyl-amino)ethyl)piperazin-1-yl)azetidin-1-yl)prop-2-en-1-one] | – | Binding % [3]: + (+ indicates binding activity from 5% to 15%)
21 | C=CC(=O)N1CCN(C(=O)c2nc(-c3ccccc3Cl)c(C)s2)CC1 [VI-22, 1-(4-(4-(2-chlorophenyl)-5-methylthiazole-2-carbonyl)piperazin-1-yl)prop-2-en-1-one] | + (+ indicates binding activity from 5% to 10%) | –
22 | C=CS(=O)(=O)N1CCN(C(=O)c2ccc(Cl)c(Cl)c2)CC1 [VI-34, (3,4-dichlorophenyl)(4-(vinylsulfonyl)piperazin-1-yl)methanone] | +++ (+++ indicates binding activity greater than 20% and up to 30%) | –
23 | C=CC(=O)N1CCN(C(=O)c2cc(I)c(Cl)cc2OC)CC1 [VI-2, 1-(4-(4-chloro-5-iodo-2-methoxybenzoyl)piperazin-1-yl)prop-2-en-1-one] | ++ (++ indicates binding activity greater than 10% and up to 20%) | –
24 | C=CC(=O)N1CCN(C(=O)c2cc(-c3cccs3)[nH]n2)CC1 [VI-16, 1-(4-(5-(thiophen-2-yl)-1H-pyrazole-3-carbonyl)piperazin-1-yl)prop-2-en-1-one] | + (+ indicates binding activity from 5% to 10%) | –
25 | CN(C)C/C=C/C(=O)N1CCN(C(=O)c2cc(-c3ccccc3Cl)c(Cl)cc2O)CC1 [VI-24, (E)-1-(4-(2′,6-dichloro-4-hydroxy-[1,1′-biphenyl]-3-carbonyl)piperazin-1-yl)-4-(dimethylamino)but-2-en-1-one] | ++++ (++++ indicates binding activity greater than 30%) | –
26 | C=CC(=O)N1CCN(C(=O)c2cc(-c3ccccc3Cl)c(Cl)[nH]2)CC1 [VI-30, 1-(4-(5-chloro-4-(2-chlorophenyl)-1H-pyrrole-2-carbonyl)piperazin-1-yl)prop-2-en-1-one] | ++ (++ indicates binding activity greater than 10% and up to 20%) | –
27 | C=CC(=O)N1CCN(C(=O)c2cc(-c3ccccc3Cl)c(Cl)cc2O)CC1 [VI-3, 1-(4-(2′,6-Dichloro-4-hydroxy-[1,1′-biphenyl]-3-carbonyl)piperazin-1-yl)prop-2-en-1-one] | ++++ (++++ indicates binding activity greater than 30%) | –
28 | C=CC(=O)N1CCN(C(=O)c2ccc(Cl)c(-c3ccccc3Cl)c2)CC1 [VI-12, 1-(4-(2′,6-dichlorobiphenyl-carbonyl)piperazin-1-yl)prop-2-en-1-one] | +++ (+++ indicates binding activity greater than 20% and up to 30%) | –
29 | C=CC(=O)N1CCC(N2CCN(C(=O)CNc3cc(Cl)c(C)cc3O)CC2)C1 (stereo not drawn) [Compound V-8, 1-(3-(4-(2-(5-chloro-2-hydroxy-4-methylphenyl-amino)acetyl)piperazin-1-yl)pyrrolidin-1-yl)prop-2-en-1-one] | – | Binding % [3]: ++ (++ indicates binding activity greater than 15% and up to 25%)
30 | C=CC(=O)N1CCN(C(=O)c2cc(-c3ccccc3Cl)n[nH]2)CC1 [VI-11, 1-(4-(3-(2-chlorophenyl)-1H-pyrazole-5-carbonyl)piperazin-1-yl)prop-2-en-1-one] | + (+ indicates binding activity from 5% to 10%) | –
